Results on 37 compounds are retold here after patent US8481524B2, “c-MET protein kinase inhibitors” (Vertex Pharmaceuticals Incorporated, priority 2007, dated 2013).

pIC50: −log10 of the molar value. Entries after “also recorded” stand apart in the source; their conditions may differ.

The assay has as its system c-Met in Snu5 gastric carcinoma cells. Briefly: Inhibition of c-Met activity in Snu5 gastric carcinoma cells (Snu5-AP1-Luc-Pest luciferase signal). It counts as cell-based, human. To be noted: for pIC50: Homo sapiens, SNU-5, Snu5-AP1-Luc-Pest cells, 6 hours, Steady Glo luminescence; for activity compared with corresponding analog wherein R5 is hydrogen: Snu5 gastric carcinoma cell assay, comparison of IC50 values. The source says:
Compounds of the invention were also screened for their ability to inhibit the Luciferase-induced signal in an engineered Snu5 cell line. Snu5 [obtained from American Type Culture Collection (Catalog number CRL-5973)] is a human gastric carcinoma known to overexpress c-Met, which is constitutively active. The cell line was transduced with the retrovirus, pCLPCX, which contains a genetic construct consisting of 6×AP1 promoter response elements and a luciferase gene having a C-terminal PEST sequence (proteolytic signal from mouse ornithine decarboxylase, which reduces the half-life of the luciferase). The constitutively active cMet activates cellular pathways (principally MAP kinase), resulting in AP-1-induced transcription of luciferase-PEST and translation into the final product, the activity of which is quantifiable as a chemiluminescent readout upon the addition of luciferin (Steady-Glo from Promega.). Residual luminescence is strongly correlated to the inhibition of c-Met. A stable cell line was obtained by selecting the new cell line (Snu5-AP1-Luc-Pest) with puromycin. The cells were grown in complete media [Iscove's media (Invitrogen) containing 10% fetal bovine serum (FBS, Hyclone) and penicillin/gentamycin (Invitrogen)]. Compounds of the invention were dissolved in DMSO to make 10 mM initial stock solutions. Serial dilutions in DMSO were then made and transferred to complete medium to make a 10× solution. The Snu5-AP1-Luc-Pest cells were counted and diluted to 200,000-cells/mL solution. The cells (90 μL) were added to each well in a 96-well black with clear bottom plate (Costar). Then 10 μL of the 10× compound solution was added to the cells in triplicate. The plates were incubated in a 37° C./5% CO2 incubator. After 6 hours, 50 μL of the Steady Glo reagent (Promega) was added to each well and placed on a plate shaker for 5 minutes to ensure that the cells were completely lysed. The plate was read on a 1450 Microbeta Liquid Scintillation and Luminescence Counter (Perkin-Elmer). The IC50s were calculated using a 4-parameter fit using the graphing software Prism (GraphPad).

`COc1ccc(-n2nnnc2-c2cc(-c3cc4c(s3)CNCCC4)cnc2N)c(F)c1F` [Compound 20]: the negative logarithm of the IC50 (pIC50) (usually the IC50 on a negative log10 scale, so that one unit is a factor of ten) is 6.00 to 7.00.

Consider `COc1ccc(-n2nnnc2-c2cc(-c3cnn([C@H]4CCNC4)c3)cnc2N)c(F)c1F` [Compound 6], for which the pIC50 was at least 7.00 and the “activity compared with corresponding analog wherein R5 is hydrogen” value is “more active”.

In the case of `CCOc1ccc(-n2nnnc2-c2cc(-c3cnn(C4CCNCC4)c3)cnc2N)c(F)c1F` [Compound 25], the negative logarithm of the IC50 (pIC50) is at least 7.00.

Consider `Cc1ccc(-n2nnnc2-c2cc(-c3cn(C4CCNCC4)nc3C)cnc2N)c(F)c1F` [Compound 45], for which the pIC50 is at least 7.00.

`Cc1ccc(-n2nnnc2-c2cc(-c3cc4c(s3)CCNCC4)cnc2N)c(Cl)c1` [Compound 39] had a pIC50 of 6.00 to 7.00.

As to `COc1ccc(-n2nnnc2-c2cc(-c3cc4c(s3)CCCNC4)cnc2N)c(F)c1F` [Compound 21], the negative logarithm of the IC50 (pIC50) was 6.00 to 7.00 and the “activity compared with corresponding analog wherein R5 is hydrogen” value is recorded as “more active”.

Regarding `Cc1ccc(-n2nnnc2-c2cc(-c3cnn(C4CCNCC4)c3)cnc2N)cc1F` [Compound 43], the pIC50 was 6.00 to 7.00.

`CCCOc1ccc(-n2nnnc2-c2cc(-c3cc4c(s3)CCNCC4)cnc2N)c(F)c1F` [Compound 23] gave a pIC50 of at least 7.00.

Take `Cc1ccc(-n2nnnc2-c2cc(-c3cnn(C4CCNCC4)c3)cnc2N)c(F)c1` [Compound 41]: the negative-log IC50 (pIC50) is 6.00 to 7.00.

Consider `COc1ccc(-n2nnnc2-c2cc(-c3cnn(C4CCNCC4)c3)cnc2N)c(F)c1F` [Compound 12, 3-(1-(2,3-difluoro-4-methoxyphenyl)-1H-tetrazol-5-yl)-5-(1-(piperidin-4-yl)-1H-pyrazol-4-yl)pyridin-2-amine], for which the pIC50 is 6.00 to 7.00 and the “activity compared with corresponding analog wherein R5 is hydrogen” value is “more active”.

In turn, `Cc1ccc(-n2nnnc2-c2cc(-c3cc4c(s3)CCNCC4)cnc2N)c(F)c1` [Compound 42] gave a negative logarithm of the IC50 (pIC50) of 6.00 to 7.00.

For the compound `Cc1cc(-c2cnc(N)c(-c3nnnn3-c3ccc(C)c(F)c3F)c2)sc1C1CCNCC1` [Compound 24], the negative-log IC50 (pIC50) is at least 7.00 and the “activity compared with corresponding analog wherein R5 is hydrogen” value is “more active”.

Turning to `COc1ccc(-n2nnnc2-c2cc(-c3cc(C)c(C4CCCNC4)s3)cnc2N)c(F)c1F` (centres unmarked) [Compound 66], the negative-log IC50 (pIC50) is at least 7.00.

Take `Cc1ccc(-n2nnnc2-c2cc(-c3cnn([C@@H]4CCCNC4)c3)cnc2N)c(F)c1F` [Compound 2]: the pIC50 was at least 7.00 and the “activity compared with corresponding analog wherein R5 is hydrogen” value is given as “more active”.

`CCCOc1ccc(-n2nnnc2-c2cc(-c3cnn(C4CCNCC4)c3)cnc2N)c(F)c1F` [Compound 34] showed a pIC50 of at least 7.00.

`Cc1ccc(-n2nnnc2-c2cc(-c3cnn(C4CCCNCC4)c3)cnc2N)c(F)c1F` (centres unmarked) [Compound 3]: the pIC50 was at least 7.00 and the “activity compared with corresponding analog wherein R5 is hydrogen” value is given as “more active”.

Consider `Cc1cc(C2CCNCC2)sc1-c1cnc(N)c(-c2nnnn2-c2ccc(C)c(F)c2F)c1` [Compound 31], for which the negative logarithm of the IC50 (pIC50) was 6.00 to 7.00 and the “activity compared with corresponding analog wherein R5 is hydrogen” value is recorded as “more active; also recorded: the unsubstituted compound has a lower IC50 value”.

For `Cc1ccc(-n2nnnc2-c2cc(-c3cnn(C4CCNCC4)c3)cnc2N)cc1Cl` [Compound 40], the pIC50 was below 6.00.

The compound `COc1ccc(-n2nnnc2-c2cc(-c3cn(C4CCCNCC4)nc3C)cnc2N)c(F)c1F` (centres unmarked) [Compound 44] showed a pIC50 of at least 7.00.

`COc1ccc(-n2nnnc2-c2cc(-c3cc4c(s3)CCNCC4(C)C)cnc2N)c(F)c1F` [Compound 29]: the pIC50 was at least 7.00 and the “activity compared with corresponding analog wherein R5 is hydrogen” value is “more active”.

Turning to `COc1ccc(-n2nnnc2-c2cc(-c3cn(C4CCNCC4)nc3C)cnc2N)c(F)c1F` [Compound 18], the negative-log IC50 (pIC50) is at least 7.00 and the “activity compared with corresponding analog wherein R5 is hydrogen” value was “more active”.

Regarding `Cc1ccc(-n2nnnc2-c2cc(-c3cc4c(s3)CCNCC4)cnc2N)c(F)c1F` [Compound 13, 3-(1-(2,3-Difluoro-4-methylphenyl)-1H-tetrazol-5-yl)-5-(5,6,7,8-tetrahydro-4H-thieno[2,3-d]azepin-2-yl)pyridin-2-amine], the pIC50 is at least 7.00 and the “activity compared with corresponding analog wherein R5 is hydrogen” value was “more active”.

The compound `COc1cc(F)c(-n2nnnc2-c2cc(-c3cc4c(s3)CCNCC4)cnc2N)c(F)c1` [Compound 54] had a pIC50 of 6.00 to 7.00.

For the compound `COc1ccc(-n2nnnc2-c2cc(-c3cn(C4CCNCC4)nc3C(F)(F)F)cnc2N)c(F)c1F` [Compound 36], the negative logarithm of the IC50 (pIC50) was at least 7.00 and the “activity compared with corresponding analog wherein R5 is hydrogen” value is “more active”.

Consider `Cc1ccc(-n2nnnc2-c2cc(-c3cn(C4CCNCC4)nc3C(F)(F)F)cnc2N)c(F)c1F` [Compound 47], for which the pIC50 is 6.00 to 7.00.

Consider `Cc1ccc(-n2nnnc2-c2cc(-c3cc4c(s3)CCNCC4(C)C)cnc2N)c(F)c1F` [Compound 30], for which the negative logarithm of the IC50 (pIC50) is at least 7.00 and the “activity compared with corresponding analog wherein R5 is hydrogen” value was “more active”.

`Cc1cc(-c2cnc(N)c(-c3nnnn3-c3ccc(C)c(F)c3F)c2)sc1C1CCCNC1` (centres unmarked) [Compound 67]: the negative-log IC50 (pIC50) is at least 7.00.

Compound `COc1ccc(-n2nnnc2-c2cc(-c3cnn(C4CCNCC4)c3)cnc2N)c(F)c1` [Compound 50] had a pIC50 of 6.00 to 7.00.

As to `COc1ccc(-n2nnnc2-c2cc(-c3cc4c(s3)CCNCC4)cnc2N)c(F)c1F` [Compound 15], the pIC50 was at least 7.00 and the “activity compared with corresponding analog wherein R5 is hydrogen” value is recorded as “more active”.

Compound `Cc1ccc(-n2nnnc2-c2cc(-c3cnn(C4CCNCC4)c3)cnc2N)c(Cl)c1` [Compound 38] had a pIC50 of 6.00 to 7.00.

With `COc1ccc(-n2nnnc2-c2cc(-c3sc(C4CCNCC4)cc3C)cnc2N)c(F)c1F` [Compound 32], the negative logarithm of the IC50 (pIC50) was at least 7.00 and the “activity compared with corresponding analog wherein R5 is hydrogen” value is given as “more active”.

Turning to `COc1ccc(-n2nnnc2-c2cc(-c3cc4c(s3)CCNCC4C)cnc2N)c(F)c1F` (centres unmarked) [Compound 14], the pIC50 is at least 7.00 and the “activity compared with corresponding analog wherein R5 is hydrogen” value is “more active”.

On to `COc1ccc(-n2nnnc2-c2cc(-c3cc4c(s3)CCNC(C)C4)cnc2N)c(F)c1F` (centres unmarked) [Compound 27], for which the negative logarithm of the IC50 (pIC50) is at least 7.00 and the “activity compared with corresponding analog wherein R5 is hydrogen” value was “more active”.

Consider `Cc1ccc(-n2nnnc2-c2cc(-c3cnn(C4CCNCC4)c3)cnc2N)c(F)c1F` [Compound 11, 3-(1-(2,3-Difluoro-4-methylphenyl)-1H-tetrazol-5-yl)-5-(1-(piperidin-4-yl)-1H-pyrazol-4-yl)pyridin-2-amine], for which the negative logarithm of the IC50 (pIC50) is 6.00 to 7.00 and the “activity compared with corresponding analog wherein R5 is hydrogen” value is on record as “more active”.

Turning to `COCc1ccc(-n2nnnc2-c2cc(-c3cnn(C4CCNCC4)c3)cnc2N)c(F)c1F` [Compound 65], the negative logarithm of the IC50 (pIC50) is 6.00 to 7.00.

`COc1ccc(-n2nnnc2-c2cc(-c3cnn([C@@H]4CCNC4)c3)cnc2N)c(F)c1F` [Compound 4]: the pIC50 was at least 7.00 and the “activity compared with corresponding analog wherein R5 is hydrogen” value is “more active”.

Turning to `COc1ccc(-n2nnnc2-c2cc(-c3cc(C)c(C4CCNCC4)s3)cnc2N)c(F)c1F` [Compound 22, 3-(1-(2,3-Difluoro-4-methoxyphenyl)-1H-tetrazol-5-yl)-5-(4-methyl-5-(piperidin-4-yl)thiophen-2-yl)pyridin-2-amine], the negative-log IC50 (pIC50) was at least 7.00 and the “activity compared with corresponding analog wherein R5 is hydrogen” value is “more active”.
